Assay results reported in EP1628646B1, “USE OF PPAR-GAMMA AGONISTS AS ANTI-INFECTIVE AGENTS” (priority 2003, dated 2004).

Legend:
récepteur mannose [1] = test: Mannose receptor expression on macrophages from mice treated in vivo, flow cytometry; conditions: cells from SWISS and RAG-2 mice treated in vivo; figure 8
Excerpt: (§1) Ces injections ont été renouvelées tous les jours durant 5 jours.
La quantité de molécule de mBSA fixée, reflet direct de la quantité de récepteurs mannose présente sur les cellules, a été analysée à l'aide d'un cytomètre en flux (FACScalibur, Becton Dickinson).

macrophages [2] = test: Production of oxidants by cultured macrophages, luminol chemiluminescence; assay type: cell-based, souris; conditions: for Production d'agents oxydants, avec ANS / Production d'agents oxydants, avec ODN / Production d'agents oxydants, sans antisens: 1 h; for Production d'agents oxydants, avec ANS: macrophages incubated 3 days with non-specific antisense ANS, control 6972 ± 90; for Production d'agents oxydants, avec ODN: macrophages incubated 3 days with specific antisense ODN, control 6795 ± 178; for Production d'agents oxydants, sans antisens: without antisense, control 6737 ± 139
Procedure: Concernant le traitement à l'antisens ODN, une séquence complémentaire à la région 3' non traduite de l'ARNm du MMR (Yamamoto et al., Infect Immun, 1997, 65:1077-82), on incube l'antisens ODN (100 nM) avec 10 µg de lipide cationique Lipofectin (GIBCO, France) à 37°C pendant 5 min selon la méthode Capacciolis et al. (Biochem Biophys Res Commun, 1998, 197:818-25) puis on l'ajoute aux macrophages cultivés dans le DMEM sans sérum. Les cellules sont incubées pendant 4 heures à 37°C avec 5 % de CO2 atmosphérique. Le milieu est remplacé par du SFM contenant l'antisens ODN mais sans Lipofectin. Les cultures sont incubées pendant 3 jours avec un changement journalier du milieu. La concentration de l'antisens ODN utilisée n'entraîne aucune toxicité significative sur les macrophages. Les macrophages non traités et les macrophages traités avec la Lipofectin seule servent de contrôle. La séquence nucléique de l'antisens ODN est exposée dans le tableau 2. Le même traitement est réalisé avec un antisens non spécifique de l'ARNm du MMR, l'antisens ANS dont la séquence nucléique est exposée dans le tableau 2.
Pour les tests de production d'agents oxydants, l'explosion respiratoire oxygène-dépendante des macrophages traités par les agonistes de PPARγ est mesurée par chimiluminescence. Les macrophages (2.10^5) sont transférés sur des boîtes de culture de 5 mm de diamètre. Après activation des cellules, la production d'agents oxydants par les macrophages, en présence ou en absence de C. albicans, est mesurée par chimiluminescence en présence de luminol à 37°C. L'émission de chimiluminescence est enregistrée en continu pendant 1 heure après incubation des cellules avec le luminol (66 µM). Pour évaluer la production de l'anion superoxyde (O2^-), la chimiluminescence est mesurée en présence de SOD, un inhibiteur spécifique de la production d'anion superoxyde. Pour évaluer la production d'oxyde nitrique (NO), la chimiluminescence est mesurée en présence de la L-NMMA (NG-monométhyl-arginine, un compétiteur spécifique de la L-arginine pour la production de NO). Aucun des inhibiteurs n'affecte la viabilité aux concentrations utilisées.
Les analyses statistiques se basent sur la mesure de la surface sous la courbe et sont exprimées en coups x secondes.
La capacité des macrophages à produire de l'anion superoxyde et du monoxyde d'azote et leur modulation par la 15d-PGJ2 ont été également étudiées par la méthode de chimiluminescence qui permet d'évaluer non seulement la production d'anions superoxydes mais aussi celle du peroxynitrite produit au cours de l'interaction entre le monoxyde d'azote et l'anion superoxyde.
Afin d'évaluer la production d'anion superoxyde, la chimiluminescence a été mesurée- en présence ou non de SOD (enzyme métabolisant O2^- en H2O2) alors que la production de monoxyde d'azote est évaluée en présence d'un compétiteur de l'arginine qui est la L-NMMA. Tableau 3 : Effet des ligands agonistes de PPARγ sur la production d'agents oxydants par les macrophages en présence ou en absence de levure. L'évaluation de la production d'agents oxydants a été déterminée sur des macrophages en culture par la technique de chimiluminescence.
Cette étude a été réalisée afin de déterminer si l'augmentation de la production d'agents oxydants sous l'effet des agonistes de PPARγ dépendait ou non de la modulation des récepteurs mannose par ces différents traitements. Dans cet objectif, la modulation de la production d'agents oxydants par les macrophages transfectés par l'antisens spécifique des ARNm des récepteurs mannose a été étudiée. Après traitement avec les agonistes de PPARγ, le dosage de la quantité d'agents oxydants produits par les macrophages transfectés a été réalisé par chimiluminescence. Les résultats sont présentés dans le tableau 5. Tableau 5 : Implication du récepteur mannose dans la production d'agents oxydants des macrophages traités par les ligands de PPARγ. […]

macrophages péritonéaux [3] = test: Phagocytosis of C. albicans by peritoneal macrophages from infected mice treated in vivo; conditions: treated i.p. (15d-PGJ2 0,01 µmoles, rosiglitazone 0,1 µmoles), 1 h challenge 1:1
Procedure: L'étude in vitro a été réalisée sur des lots de 10 souris, soit immunocompétentes (SWISS) ou immunodéficientes (RAG-2), qui ont été infectées par C. albicans.
(§2) Les souris hébergées dans des cages stériles ont été infectées par gavage de 500 µl d'une suspension de levures (2.10^7 cfu.ml^-1).
as §1
Après une incubation de 2 heures à l'étuve à 37°C, 5 % CO2, les cellules non adhérentes ont été éliminées par deux rinçages en PBS.
Afin d'évaluer la capacité des macrophages à phagocyter C. albicans, une technique basée sur l'incorporation de nucléotides radioactifs (Uracile tritié) au niveau de l'ARN des levures en voie de multiplication a été réalisée. Les levures pré-marquées sont déposées sur les tapis macrophagiques et mises à incuber à 37°C sous 5 % CO2. […] Sachant que la radioactivité mesurée dans le lysat est proportionnelle à la quantité de levures phagocytées et que celle mesurée dans les surnageants est proportionnelle à la quantité de levures externes, le pourcentage de levures phagocytées par rapport à la quantité de levures totales sera déterminé selon la formule suivante : %Phagocytose = (dpmlysat)/(dpmlysat + dpmsurnageant) [formula]

macrophages [4] = test: Production of oxidants by macrophages from mice treated in vivo, chemiluminescence; set-up: species or system souris; conditions: macrophages from SWISS and RAG-2 mice treated in vivo, vs control mice; figure 7
Excerpt: Afin d'évaluer la production d'agents oxydants (radicaux libres oxygénés et monoxyde d'azote) par les macrophages après la mise en culture des macrophages, les activités conjointes de la NADPH oxydase et de la NOsynthase inductible sont mesurées par chimiluminescence en présence d'une sonde chimiluminogène, Luminol (SIGMA, France) : 5-amino2,3-diydro-1,4-phtalazine-dione. La production de chimiluminescence sera analysée avec un luminomètre (Wallac Victor II, Finlande) piloté par un ordinateur. Le luminol permet, en présence d'agents oxydants, l'émission de photons captés par le photomultiplicateur de la chambre noire du luminomètre thermostaté à 37°C et transformés en impulsions électriques quantifiables. Les valeurs de chimiluminescence seront enregistrées continuellement pendant 1 heure après incubation des cellules avec le luminol ([…]) et en présence ou non de levures.
L'évaluation de la production d'agents oxydants par les macrophages, en présence ou en absence de la levure, a été déterminée sur des macrophages en culture par la technique de chimiluminescence. La figure 7 expose les résultats obtenus, en nombre de coups secondes (C x S) comptabilisés pendant 1 heure, pour chaque test.

cellules RAW 264.7 = test: Mannose receptor expression on RAW 264.7 cells transfected with CMV-luciférase or CMV-PPARγ, flow cytometry; conditions: 24 h, 1 µM 15d-PGJ2, 5 µM ciglitazone, 5 µM rosiglitazone; for Moyenne géométrique de l'intensité de fluorescence, CMV-PPAR-γ: RAW 264.7 transfected with CMV-PPARγ, control 53,87; for Moyenne géométrique de l'intensité de fluorescence, CMV-LUC: RAW 264.7 transfected with CMV-luciférase, control 47,51
C. albicans = test: Gastrointestinal candidiasis in mice: number of yeasts in organs by CFU and real-time quantitative PCR; conditions: SWISS and RAG-2 mice, oesophage, estomac, caecum, vs untreated mice, figure 10
Procedure: En parallèle, ce même protocole a été réalisé sur des souris SWISS immunocompétentes (Centre d'élevage - Etablissement Janvier, France).
as §2, §1
En cours et en fin d'expérimentation, des prélèvements sanguins ont été effectués afin de suivre la présence des levures dans le sang des souris. […] Au terme du protocole, les souris ont été euthanasiées et les différents organes ont été prélevés stérilement en vue de quantifier le nombre de levures présentes dans les différents organes par CFU et PCR quantitative en temps réel.
Pour quantifier le nombre de levures présentes dans les différents organes par CFU, après homogénéisation de chaque tissu, plusieurs dilutions sont réalisées et ensemencées dans des boîtes de culture. Les boîtes sont incubées à 35°C pendant 24 à 48 heures et le nombre de colonies est alors compté.
Pour quantifier le nombre de levures présentes dans les différents organes par PCR, après homogénéisation des différents organes, l'ADN total est extrait par la méthode phénol/chloroforme et soumis à une Q-PCR en temps réel. […] La détection se fait par hybridation de deux sondes marquées spécifiques de C. albicans (transfert de fluorescence).

macrophages péritonéaux [5] = test: Phagocytosis of [3H]uracil-labelled C. albicans by treated peritoneal macrophages in vitro; assay type: cell-based, souris; conditions: effect of the PPARγ antagonist added; figure 2
Procedure: Les macrophages, quant à eux, proviennent soit du péritoine de souris femelles SWISS (Centre d'élevage, Etablissement Janvier, France), soit du sang périphérique de donneurs sains. Ces macrophages, de souris ou d'humain, sont cultivés dans un milieu de culture SFM ("serum-free medium") optimisé pour la culture des macrophages, commercialisé par la société GibcoBRL, France. L'adhésion des cellules se produit après environ 2 heures de culture à 37°C sous atmosphère à 5 % de CO2. Les cellules n'adhérant pas à la boîte de culture sont éliminées par rinçage au PBS (GibcoBRL, France).
Pour étudier le mécanisme d'ingestion de C. albicans par les macrophages, des levures préalablement marquées par [^3H]uracile sont utilisées. Trois colonies de C. albicans sont dispersées dans 1 ml de bouillon Sabouraud contenant 150 µCi de [^3H]uracile. Après 24 heures de culture à 37°C sous agitation, les blastospores marqués sont centrifugés et resuspendus dans le SFM enrichi avec 1,8 % de glucose. Pour chaque essai, les monocouches de macrophages cultivées sur les plaques 24 puits sont traitées avec les agonistes de PPARγ pendant 20 heures, puis infectées avec C. albicans marqué et viable (dans une proportion macrophages/levures de 1:1) et laissées à incuber pendant 1 heure à 37°C, puis 2 heures à 5°C. Soumis à 5°C, les mécanismes de phagocytose sont bloqués. […]

récepteur mannose [6] = test: Mannose receptor expression on macrophages, FITC-mBSA flow cytometry; assay type: cell-based, souris; conditions: antagonist 0,1 µM, 24 h; figure 5
Procedure: Pour les essais de cytométrie en flux, les macrophages sont rincés au PBS glacé. Le marquage des MMR est réalisé pendant une heure, dans la glace, à la manière d'un ligand spécifique conjugué avec de l'albumine bovine mannosylée marquée à la fluorescéine FITC (840 nM) (SIGMA, France). Afin de faciliter la sélection des populations de cellules viables, une coloration à l'iodure de propidium est réalisée. Toutes les analyses sont effectuées par le FACScalibur (Becton-Dickinson) en utilisant le logiciel CellQuest.
Dans une deuxième étape, l'induction de l'expression du récepteur mannose des macrophages péritonéaux murins sous l'effet des différents traitements a été étudiée par cytométrie de flux en présence d'un antagoniste irréversible de PPARγ, le GW 9662.
Ces résultats sont confirmés par la figure 5 qui montre que l'augmentation de l'expression du récepteur mannose à la surface des macrophages sous l'effet de la 15d-PGJ2 est antagonisée par le GW 9662.
Pour ce faire, les macrophages ont été traités pendant 3 jours avec l'antisens spécifique de l'ARNm du récepteur mannose (ODN). […] Les cellules ont été ensuite incubées avec la mBSA marquée au FITC, puis analysées par cytométrie en flux. L'intensité de la fluorescence analysée est représentée à la figure 6.

SMILES | quantité d'albumine bovine mannosylée marquée à la fluorescéine présente sur les macrophages (récepteur mannose [1]) | Production d'agents oxydants, avec ANS (macrophages [2]) | Production d'agents oxydants, avec ODN (macrophages [2]) | Production d'agents oxydants, sans antisens (macrophages [2]) | Production d'agents oxydants pendant 1 heure, + Levures L-NMMA (macrophages [2]; with yeast, in presence of L-NMMA) | Production d'agents oxydants pendant 1 heure, + Levures SOD (macrophages [2]; with yeast, in presence of SOD) | Production d'agents oxydants pendant 1 heure, + Levures (macrophages [2]; with yeast, no inhibitor) | Production d'agents oxydants pendant 1 heure, - Levure (macrophages [2]; without yeast) | Index de phagocytose, RAG-2 (macrophages péritonéaux [3]; RAG-2 mice infected with C. albicans, control 59,82 ± 2,43) | Index de phagocytose, SWISS (macrophages péritonéaux [3]; SWISS mice infected with C. albicans, control 42,97 ± 1,20) | production basale d'agents oxydants par les macrophages (macrophages [4]) | Moyenne géométrique de l'intensité de fluorescence, CMV-PPAR-γ (cellules RAW 264.7) | Moyenne géométrique de l'intensité de fluorescence, CMV-LUC (cellules RAW 264.7) | colonisation des différents organes (nombre de levures) (C. albicans) | augmentation de la capacité de phagocytose des macrophages traités par les agonistes de PPARγ (macrophages péritonéaux [5]) | augmentation de l'expression du récepteur mannose à la surface des macrophages sous l'effet de la 15d-PGJ2 (récepteur mannose [6])
CCCCCC=CC=C1C(=O)C=CC1CC=CCCCC(=O)O (centres unmarked) [15d-PGJ2, 15-déoxy-Δ^12,14-prostaglandine J2] | significativement augmentée | 9678 ± 106 coups x secondes | 7012 ± 98 coups x secondes | 9161 ± 85 coups x secondes | 14258 ± 216 coups x secondes | 7228 ± 212 coups x secondes | 13905 ± 328 coups x secondes | 7469 ± 238 coups x secondes | 76,32 ± 1,89 | 65,26 ± 2,11 | la même quantité basale d'agents oxydants | 73 | 44,29 | diminution significative de la colonisation | – | –
O=C(Nc1ccccc1)c1cc([N+](=O)[O-])ccc1Cl [GW 9662] | – | – | – | – | – | – | – | – | – | – | – | – | – | – | inhibée | antagonisée
CC1(COc2ccc(CC3SC(=O)NC3=O)cc2)CCCCC1 (centres unmarked) [ciglitazone] | – | 8322 ± 183 coups x secondes | 7109 ± 155 coups x secondes | 8398 ± 104 coups x secondes | – | – | – | – | – | – | – | 64,3 | 38,51 | – | – | –
CN(CCOc1ccc(CC2SC(=O)NC2=O)cc1)c1ccccn1 (centres unmarked) [rosiglitazone] | – | 8813 ± 190 coups x secondes | 7197 ± 77 coups x secondes | 8960 ± 179 coups x secondes | – | – | – | – | – | – | – | 61,51 | 37,94 | – | – | –
